Biological target: A2.1/K^b on EA2 target cells (UniProt P01901+P04439, D140Y/D185E/D98H/E176V/G131W/I119V/I121R/I166T/N151K/N90K/Q86G/Q94H/R138H/R169H)
Assay type: binding, chimeric human-mouse

Row | Sequence | binding to A2.1/K^b (percent specific lysis of EA2/K^b targets, FIG. 1), in words | inhibition of binding of the influenza A-derived peptide to A2.1/K^b (FIG. 5), in words
1 | ILKEPVHGV [HIV-1 RT: 476-484, reference compound] | efficiently bound to A2.1/K^b | –
2 | ILLVVVLGV [Peptide H9] | – | highest efficiency

Source: patent US20030022820A1, “IN VIVO ACTIVATION OF TUMOR-SPECIFIC CYTOTOXIC T CELLS” (priority 1995, published 2003)
